# Test results: article PMC5736936, “Xylopine Induces Oxidative Stress and Causes G2/M Phase Arrest, Triggering Caspase-Mediated Apoptosis by p53-Independent Pathway in HCT116 Cells” (Oxidative Medicine and Cellular Longevity, 2017)
# pIC50: −log10 of the molar value. Like-named read-outs stand apart in the source and are kept apart here.
# Experiments:
# [1] = system: HepG2 (human hepatocellular carcinoma); test: Cytotoxic activity, alamarBlue assay, 72 h; type: cell-based
# Text: (§1) MCF7 (human breast carcinoma), HCT116 (human colon carcinoma), HepG2 (human hepatocellular carcinoma), SCC-9 (human oral squamous cell carcinoma), HSC-3 (human oral squamous cell carcinoma), HL-60 (human promyelocytic leukemia), K-562 (human chronic myelogenous leukemia), B16-F10 (murine melanoma), MRC-5 (human lung fibroblast), WT SV40 MEF (wild-type immortalized mouse embryonic fibroblast), and BAD KO SV40 MEF (BAD gene knockout immortalized mouse embryonic fibroblast) cell lines were obtained from the American Type Culture Collection (ATCC, Manassas, VA, USA). Cells were cultured in complete medium with appropriate supplements as recommended by ATCC. All cell lines were tested for mycoplasma using the Mycoplasma Stain Kit (Sigma-Aldrich) to validate the use of cells free from contamination. Primary cell culture of peripheral blood mononuclear cells (PBMC) was obtained by standard Ficoll density protocol. The Research Ethics Committee of the Oswaldo Cruz Foundation (Salvador, BA, Brazil) approved the experimental protocol (number 031019/2013). Cell viability was examined using trypan blue exclusion assay for all experiments.
# (§2) Cell viability was quantified using the alamarBlue assay according to Ahmed et al.. Cells were inserted in 96-well plates for all experiments (7 × 10^4 cells/mL for adherent cells or 3 × 10^5 cells/mL for suspended cells in 100 μL of medium). After 24 h, xylopine was dissolved in dimethyl sulfoxide (DMSO) and added to each well and incubated for 72 h. […] Four (for cell lines) or 24 h (for PBMCs) before the end of incubation, 20 μL of a stock solution (0.312 mg/mL) of the alamarBlue (resazurin, Sigma-Aldrich Co., Saint Louis, MO, USA) was added to each well. Absorbance at 570 nm and 600 nm was measured using the SpectraMax 190 Microplate Reader (Molecular Devices, Sunnyvale, CA, USA), and the drug effect was quantified as the percentage of control absorbance.
# [2] = system: K562 (human chronic myelogenous leukemia); test: Cytotoxic activity, alamarBlue assay, 72 h; type: cell-based;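 on Selectivity index: SI is noncancer IC50 (MRC-5 or PBMC) divided by cancer cell IC50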
# Text: as §1, §2
# [3] = system: MCF7 (human breast carcinoma); test: Cytotoxic activity, alamarBlue assay, 72 h; type: cell-based;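 on Selectivity index: SI is noncancer IC50 (MRC-5 or PBMC) divided by cancer cell IC50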
# Text: as §1, §2
# [4] = system: HCT116 (human colon carcinoma); test: Cytotoxic activity, alamarBlue assay, 72 h; type: cell-based;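 on Selectivity index: SI is noncancer IC50 (MRC-5 or PBMC) divided by cancer cell IC50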
# Text: as §1, §2
# [5] = system: HSC3 (human oral squamous cell carcinoma); test: Cytotoxic activity, alamarBlue assay, 72 h; type: cell-based
# Text: as §1, §2
# [6] = system: SCC9 (human oral squamous cell carcinoma); test: Cytotoxic activity, alamarBlue assay, 72 h; type: cell-based
# Text: as §1, §2
# [7] = system: B16-F10 (murine melanoma); test: Cytotoxic activity, alamarBlue assay, 72 h; type: cell-based
# Text: as §1, §2
# [8] = system: HL-60 (human promyelocytic leukemia); test: Cytotoxic activity, alamarBlue assay, 72 h; type: cell-based;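 on Selectivity index: SI is noncancer IC50 (MRC-5 or PBMC) divided by cancer cell IC50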
# Text: as §1, §2
# calf thymus DNA (ctDNA) = test: DNA intercalation assay (ethidium bromide displacement); type: binding; conditions: 10 or 20 μM xylopine, 15 μg/mL ctDNA, 1.5 μM ethidium bromide
# Experimental: DNA intercalation was assessed by examining the ability of xylopine to displace ethidium bromide from calf thymus DNA (ctDNA, Sigma-Aldrich Co.). The assay was conducted in 96-well plates and contained 15 μg/mL ctDNA, 1.5 μM ethidium bromide, and 10 or 20 μM xylopine in 100 μL saline solution. […] Fluorescence was measured using excitation and emission wavelengths of 320 and 600 nm, respectively.
# HCT116 cells [9] = type: cell-based, human
# Experimental: Cells were harvested in a permeabilization solution containing 0.1% Triton X-100 (Sigma Chemical Co., St Louis, MO, USA), 2 μg/mL propidium iodide (Sigma Chemical Co.), 0.1% sodium citrate, and 100 μg/mL RNAse (Sigma Chemical Co.) and incubated in the dark for 15 min at room temperature. Finally, cell fluorescence was measured by flow cytometry on a BD LSRFortessa cytometer using the BD FACSDiva software (BD Biosciences) and FlowJo software 10 (FlowJo, LCC, Ashland, OR, USA).
# HCT116 cells [10] = test: Cell viability by trypan blue exclusion assay; type: cell-based, human; conditions: for reduction of the number of viable cells: HCT116, trypan blue
# Text: as §1
# [11] = system: human hepatocellular carcinoma HepG2 cells; parameters: method as in PMID 27399666; conditions: cited from earlier work
# [12] = HCT116, XYL 3.5 μM, 24 h incubation
# [13] = HCT116, XYL 3.5 μM, 48 h incubation
# [14] = HCT116, XYL 7 μM, 24 h incubation
# [15] = HCT116, XYL 7 μM, 48 h incubation
# [16] = HCT116, XYL 14 μM, 24 h incubation
# [17] = HCT116, XYL 14 μM, 48 h incubation
structure (smiles),measurement,setting,value
"COc1ccc2c(c1)C[C@@H]1NCCc3cc4c(c-2c31)OCO4 [XYL, xylopine]",pIC50,"[1]; Homo sapiens, HepG2, alamarBlue, 72 h",5.03
same,Selectivity index,[1]; IC50(MRC5)/IC50(HepG2),2.6
same,Selectivity index,[1]; IC50(PBMC)/IC50(HepG2),2
same,pIC50,"[2]; Homo sapiens, K562, alamarBlue, 72 h",5.11
same,Selectivity index,[2]; IC50(MRC5)/IC50(K-562),3.1
same,Selectivity index,[2]; IC50(PBMC)/IC50(K-562),2.4
same,pIC50,"[3]; Homo sapiens, MCF7, alamarBlue, 72 h",4.92
same,Selectivity index,[3]; IC50(MRC5)/IC50(MCF7),2
same,Selectivity index,[3]; IC50(PBMC)/IC50(MCF7),1.5
same,pIC50,"[4]; Homo sapiens, HCT-116, HCT116, alamarBlue, 72 h",5.19
same,Selectivity index,[4]; IC50(MRC5)/IC50(HCT116),3.8
same,Selectivity index,[4]; IC50(PBMC)/IC50(HCT116),2.9
same,pIC50,"[5]; Homo sapiens, HSC-3, HSC3, alamarBlue, 72 h",4.80
same,Selectivity index,[5]; IC50(MRC5)/IC50(HSC-3),1.5
same,Selectivity index,[5]; IC50(PBMC)/IC50(HSC-3),1.2
same,pIC50,"[6]; Homo sapiens, SCC-9, SCC9, alamarBlue, 72 h",4.58
same,Selectivity index,[6]; IC50(MRC5)/IC50(SCC-9),0.9
same,Selectivity index,[6]; IC50(PBMC)/IC50(SCC-9),0.7
same,Selectivity index,[7]; IC50(MRC5)/IC50(B16-F10),2.5
same,Selectivity index,[7]; IC50(PBMC)/IC50(B16-F10),1.9
same,pIC50,"[7]; Mus musculus, B16-F10, alamarBlue, 72 h",5.02
same,pIC50,"[8]; Homo sapiens, HL-60, alamarBlue, 72 h",4.73
same,Selectivity index,[8]; IC50(MRC5)/IC50(HL-60),1.3
same,Selectivity index,[8]; IC50(PBMC)/IC50(HL-60),1
same,displacement of ethidium bromide from ctDNA (fluorescence intensity),calf thymus DNA (ctDNA),not able to decrease the ethidium bromide fluorescence
same,DNA content (%) G0/G1,HCT116 cells [9]; [12],17.0 ± 7.0^∗ %
same,DNA content (%) G2/M,HCT116 cells [9]; [12],57.2 ± 3.5^∗ %
same,DNA content (%) S,HCT116 cells [9]; [12],24.7 ± 4.8%
same,DNA content (%) Sub-G0/G1,HCT116 cells [9]; [12],6.2 ± 1.9%
same,DNA content (%) G2/M,"HCT116 cells [9]; HCT116, XYL 3.5 μM, 24 h incubation, listed as xylopine",57.2%
same,DNA content (%) G0/G1,HCT116 cells [9]; [13],17.0 ± 6.3^∗ %
same,DNA content (%) G2/M,HCT116 cells [9]; [13],52.0 ± 6.8^∗ %
same,DNA content (%) S,HCT116 cells [9]; [13],11.1 ± 2.2%
same,DNA content (%) Sub-G0/G1,HCT116 cells [9]; [13],15.2 ± 1.9%
same,DNA content (%) G2/M,"HCT116 cells [9]; HCT116, XYL 3.5 μM, 48 h incubation, listed as xylopine",52.0%
same,DNA content (%) G0/G1,HCT116 cells [9]; [14],14.9 ± 4.2^∗ %
same,DNA content (%) G2/M,HCT116 cells [9]; [14],58.5 ± 2.9^∗ %
same,DNA content (%) S,HCT116 cells [9]; [14],23.3 ± 3.7%
same,DNA content (%) Sub-G0/G1,HCT116 cells [9]; [14],5.1 ± 1.6%
same,DNA content (%) G2/M,"HCT116 cells [9]; HCT116, XYL 7 μM, 24 h incubation, listed as xylopine",58.5%
same,DNA content (%) G0/G1,HCT116 cells [9]; [15],10.3 ± 1.3^∗ %
same,DNA content (%) G2/M,HCT116 cells [9]; [15],52.7 ± 3.6^∗ %
same,DNA content (%) S,HCT116 cells [9]; [15],6.8 ± 2.0%
same,DNA content (%) Sub-G0/G1,HCT116 cells [9]; [15],25.9 ± 2.5^∗ %
same,DNA content (%) G2/M,"HCT116 cells [9]; HCT116, XYL 7 μM, 48 h incubation, listed as xylopine",52.7%
same,DNA content (%) G0/G1,HCT116 cells [9]; [16],30.5 ± 6.0%
same,DNA content (%) G2/M,HCT116 cells [9]; [16],54.0 ± 6.1^∗ %
same,DNA content (%) S,HCT116 cells [9]; [16],11.1 ± 1.6%
same,DNA content (%) Sub-G0/G1,HCT116 cells [9]; [16],11.3 ± 1.4%
same,DNA content (%) G2/M,"HCT116 cells [9]; HCT116, XYL 14 μM, 24 h incubation, listed as xylopine",54.0%
same,DNA content (%) G0/G1,HCT116 cells [9]; [17],14.6 ± 2.6^∗ %
same,DNA content (%) G2/M,HCT116 cells [9]; [17],40.8 ± 5.7^∗ %
same,DNA content (%) S,HCT116 cells [9]; [17],9.3 ± 1.7%
same,DNA content (%) Sub-G0/G1,HCT116 cells [9]; [17],33.4 ± 6.2^∗ %
same,DNA content (%) G2/M,"HCT116 cells [9]; HCT116, XYL 14 μM, 48 h incubation, listed as xylopine",40.8%
same,reduction of the number of viable cells,"HCT116 cells [10]; 3.5 μM, 24 h",50.2%
same,reduction of the number of viable cells,"HCT116 cells [10]; 3.5 μM, 48 h",79.9%
same,reduction of the number of viable cells,"HCT116 cells [10]; 7 μM, 24 h",64.4%
same,reduction of the number of viable cells,"HCT116 cells [10]; 7 μM, 48 h",84.6%
same,reduction of the number of viable cells,"HCT116 cells [10]; 14 μM, 24 h",71.8%
same,reduction of the number of viable cells,"HCT116 cells [10]; 14 μM, 48 h",89.4%
same,number of nonviable cells,"HCT116 cells [10]; HCT116, trypan blue, 3.5, 7, 14 μM, 24 and 48 h",No significant increase
same,cell cycle arrest and apoptosis,[11],causes G2/M cell cycle arrest and apoptosis
